This passage reports IC50 and GI50 results from patent publication US9580390B2, “Indazole compounds as kinase inhibitors and method of treating cancer with same” (University Health Network, priority 2011, dated 2017).

The structures appear in SMILES notation.

For assay [1], the target named is T1, human TTK (Homo sapiens, UniProt P33981).
T1 construct: amino terminal GST fusion of full length human TTK; purchased Invitrogen
T1 sequence (P33981 1-857): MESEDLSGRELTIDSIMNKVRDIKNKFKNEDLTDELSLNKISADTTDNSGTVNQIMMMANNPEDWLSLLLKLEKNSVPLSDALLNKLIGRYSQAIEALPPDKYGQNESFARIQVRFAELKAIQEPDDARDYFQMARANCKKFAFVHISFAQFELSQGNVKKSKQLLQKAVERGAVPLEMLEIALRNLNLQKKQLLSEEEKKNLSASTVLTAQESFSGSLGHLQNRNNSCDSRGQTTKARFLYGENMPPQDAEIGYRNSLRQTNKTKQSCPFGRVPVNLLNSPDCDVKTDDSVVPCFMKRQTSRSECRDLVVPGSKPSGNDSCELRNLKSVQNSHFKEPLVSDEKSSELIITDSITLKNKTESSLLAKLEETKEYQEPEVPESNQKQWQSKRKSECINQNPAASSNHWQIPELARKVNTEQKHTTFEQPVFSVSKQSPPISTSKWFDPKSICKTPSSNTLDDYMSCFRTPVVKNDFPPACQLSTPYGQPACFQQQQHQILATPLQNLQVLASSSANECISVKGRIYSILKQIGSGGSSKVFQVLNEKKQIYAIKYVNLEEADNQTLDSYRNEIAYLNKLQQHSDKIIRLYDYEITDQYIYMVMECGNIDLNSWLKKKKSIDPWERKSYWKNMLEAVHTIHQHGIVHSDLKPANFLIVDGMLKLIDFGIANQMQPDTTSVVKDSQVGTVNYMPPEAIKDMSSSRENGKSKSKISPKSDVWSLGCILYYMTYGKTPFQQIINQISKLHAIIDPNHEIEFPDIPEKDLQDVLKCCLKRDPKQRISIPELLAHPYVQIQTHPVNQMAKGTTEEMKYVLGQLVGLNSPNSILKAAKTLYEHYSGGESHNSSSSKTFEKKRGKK
Briefly: TTK inhibition assay (indirect ELISA). It counts as biochemical. The following applies: read-out: TTK IC50 Range.

Assay [2] concerns Breast cancer cells. Briefly: Cancer cell line growth inhibition (SRB assay). It counts as cell-based. To be noted: Homo sapiens; MDA-MB-468; read-out: Cancer Cell Line GI50 Range MDA-MB-468.
Assay [3] has as its system colon cancer cells (HCT116). Briefly: Cancer cell line growth inhibition (SRB assay). The assay is classed as cell-based. The following applies: Homo sapiens, HCT-116; read-out: Cancer Cell Line GI50 Range HCT116.
For assay [4], the system named is ovarian cancer cells (PA-1). Description: Cancer cell line growth inhibition (SRB assay). The assay is classed as cell-based. To be noted: Homo sapiens, PA-1; read-out: Cancer Cell Line GI50 Range PA-1.
Assay [5] concerns TICs (Colon 12). Description: Colon tumor-initiating cell growth inhibition (Alamar Blue). To be noted: 216 h; Colon 12 TICs, 9 days; read-out: Tumor Initiating Cell GI50 Range Colon 12. The assay is classed as cell-based.
Assay [6] deals with TICs (Ovarian 2393A). Description: Ovarian tumor-initiating cell growth inhibition (Alamar Blue). The assay is classed as cell-based. The following applies: 144 h; Ovarian 2393A TICs, 6 days; read-out: Tumor Initiating Cell GI50 Range Ovarain 2393A.
The target of assay [7] is T2, human PLK4 (Homo sapiens, UniProt O00444).
T2 construct: amino terminal GST fusion of residues 1-391 of human PLK4; made in house; host or cells: E. coli
T2 sequence (O00444 1-391): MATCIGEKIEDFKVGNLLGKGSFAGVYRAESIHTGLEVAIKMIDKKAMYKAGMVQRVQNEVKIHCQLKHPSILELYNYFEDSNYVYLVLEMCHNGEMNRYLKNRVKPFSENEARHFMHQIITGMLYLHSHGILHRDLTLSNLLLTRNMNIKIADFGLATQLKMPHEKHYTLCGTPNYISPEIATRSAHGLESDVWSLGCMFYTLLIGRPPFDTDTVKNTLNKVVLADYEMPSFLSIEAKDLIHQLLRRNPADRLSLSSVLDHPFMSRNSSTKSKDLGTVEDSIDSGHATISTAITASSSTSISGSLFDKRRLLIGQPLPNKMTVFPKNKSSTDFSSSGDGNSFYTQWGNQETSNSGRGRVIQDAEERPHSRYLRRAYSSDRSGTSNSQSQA
Briefly: PLK4 inhibition assay (indirect ELISA). It counts as biochemical. The following applies: 15 μM ATP. In a few lines:
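Dephosphorylated GST-PLK4 (residues 1-391, E. coli; 4 nM) was preincubated 15 min with compound, then reacted 30 min with 15 μM ATP in HEPES pH 7.4, MgCl2, Brij 35 on MBP-coated plates. Phospho-MBP was detected by antibody/HRP ELISA at 450 nm; IC50 from 10-point titration by 4-parameter logistic fit, or single 10 μM % inhibition.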

`CN1C2CCC1CC(Oc1ccc(-c3n[nH]c4ccc(C(=O)N[C@@H](c5ccccc5Cl)C5CC5)cc34)cc1)C2` (stereo partly drawn) [Example A234, N-((R)-(2-chlorophenyl)(cyclopropyl)methyl)-3-(4-(((1R,3R,5S)-8-methyl-8-azabicyclo[3.2.1]octan-3-yl)oxy)phenyl)-1H-indazole-5-carboxamide]: the IC50 in assay [1] is under 100 nM; in assay [7], under 50 nM. The GI50 was 100 to 500 nM in assay [2]; under 100 nM in assay [3]; under 100 nM in assay [4]; 100 to 500 nM in assay [5]; 100 to 500 nM in assay [6].

In the case of `C[C@@H](O)CN1CCC(Oc2ccc(-c3n[nH]c4ccc(C(=O)N[C@@H](c5ccsc5)C5CCCC5)cc34)cc2)CC1` [Example A222, N-((R)-cyclopentyl(thiophen-3-yl)methyl)-3-(4-((1-((R)-2-hydroxypropyl)piperidin-4-yl)oxy)phenyl)-1H-indazole-5-carboxamide], the IC50 in assay [1] is under 100 nM; in assay [7], under 50 nM. For the same molecule, the GI50 in assay [2] is 100 to 500 nM; in assay [3], under 100 nM; in assay [4], under 100 nM; in assay [5] it was under 100 nM; in assay [6] it was 100 to 500 nM.

As to `CC(C)[C@H](NC(=O)c1ccc2[nH]nc(-c3ccc(OC4CC5CCC(C4)N5C)cc3)c2c1)c1ccccc1Cl` (stereo partly drawn) [Example A287, N-((S)-1-(2-chlorophenyl)-2-methylpropyl)-3-(4-(((1R,3R,5S)-8-methyl-8-azabicyclo[3.2.1]octan-3-yl)oxy)phenyl)-1H-indazole-5-carboxamide], the IC50 was under 100 nM in assay [1] and under 50 nM in assay [7]. The GI50 in assay [2] is under 100 nM; in assay [3], under 100 nM; in assay [4] it was under 100 nM; in assay [5] it was 100 to 500 nM; in assay [6] it was 100 to 500 nM.

In the case of `CN1C2CCC1CC(Oc1ccc(-c3n[nH]c4ccc(C(=O)N[C@@H](c5ccsc5)C5CCCC5)cc34)cc1)C2` (stereo partly drawn) [Example A247, N-((R)-cyclopentyl(thiophen-3-yl)methyl)-3-(4-(((1R,3R,5S)-8-methyl-8-azabicyclo[3.2.1]octan-3-yl)oxy)phenyl)-1H-indazole-5-carboxamide], the IC50 in assay [1] was under 100 nM; in assay [7], under 50 nM. Further, the concentration for 50% growth inhibition (GI50) in assay [2], in assay [3], in assay [4], in assay [5] and in assay [6] was 100 to 500 nM throughout.

In the case of `CC(C)C[C@H](NC(=O)c1ccc2[nH]nc(-c3ccc(N4CCN(C5COC5)CC4)cc3)c2c1)c1ccccc1Cl` [Example A299, (S)-N-(1-(2-chlorophenyl)-3-methylbutyl)-3-(4-(4-(oxetan-3-yl)piperazin-1-yl)phenyl)-1H-indazole-5-carboxamide], the results for the IC50 in assay [1] and in assay [7] were under 100 nM and under 50 nM, respectively. The GI50 in assay [2], in assay [3], in assay [4], in assay [5] and in assay [6] was under 100 nM in each case.

Consider `CC(C)[C@@H](NC(=O)c1ccc2[nH]nc(-c3ccc(OC4CC5CCC(C4)N5C)cc3)c2c1)c1ccccc1Cl` (stereo partly drawn) [Example A288, N-((R)-1-(2-chlorophenyl)-2-methylpropyl)-3-(4-(((1R,3R,5S)-8-methyl-8-azabicyclo[3.2.1]octan-3-yl)oxy)phenyl)-1H-indazole-5-carboxamide], for which the IC50 in assay [1] is under 100 nM; in assay [7], under 50 nM. The GI50 in assay [2] is 100 to 500 nM; in assay [3], under 100 nM; in assay [4], 100 to 500 nM; in assay [5] it was 100 to 500 nM; in assay [6], 100 to 500 nM.
